Test results: ChEMBL document CHEMBL4422664, “2-Benzoylbenzofuran derivatives possessing piperazine linker as anticancer agents” (Bioorg Med Chem Lett, 2019)

Test system: HeLa
Assay: Cytotoxicity against human HeLa assessed as reduction in cell viability after 48 hrs by MTT assay
Format: functional, cell-based
Conditions: not given

SMILES	IC50 [µM]
CCN(CC)c1ccc2cc(C(=O)c3ccc(N4CCN(C(=O)CN5CCN(Cc6ccc(C(F)(F)F)cc6)CC5)CC4)cc3)oc2c1	> 40
CCOC(=O)CN1CCN(CC(=O)N2CCN(c3ccc(C(=O)c4cc5ccc(N(CC)CC)cc5o4)cc3)CC2)CC1	22.1
CCN(CC)c1ccc2cc(C(=O)c3ccc(N4CCN(C(=O)CN5CCN(C(=O)CCl)CC5)CC4)cc3)oc2c1	5.52
CCN(CC)c1ccc2cc(C(=O)c3ccc(N4CCN(C(=O)CN5CCN(C(=O)c6cc(Cl)cc(Cl)c6)CC5)CC4)cc3)oc2c1	8.11
C#CCN1CCN(CC(=O)N2CCN(c3ccc(C(=O)c4cc5ccc(N(CC)CC)cc5o4)cc3)CC2)CC1	> 40
O=c1[nH]cc(F)c(=O)[nH]1 [FLUOROURACIL]	10.7
CCN(CC)c1ccc2cc(C(=O)c3ccc(N4CCN(C(=O)CN5CCN(S(=O)(=O)c6ccc(C#N)cc6)CC5)CC4)cc3)oc2c1	8.47
CCN(CC)c1ccc2cc(C(=O)c3ccc(N4CCN(C(=O)CN5CCN(C(=O)c6ccc(F)cc6)CC5)CC4)cc3)oc2c1	> 40
CCN(CC)c1ccc2cc(C(=O)c3ccc(N4CCN(C(=O)CN5CCN(CC(=O)c6ccccc6)CC5)CC4)cc3)oc2c1	3.12
CCN(CC)c1ccc2cc(C(=O)c3ccc(N4CCN(C(=O)CN5CCN(CC(=O)c6ccc(C)cc6)CC5)CC4)cc3)oc2c1	1.68
CCN(CC)c1ccc2cc(C(=O)c3ccc(N4CCN(C(=O)CN5CCN(CC(=O)c6ccc(C#N)cc6)CC5)CC4)cc3)oc2c1	2.44
CCN(CC)c1ccc2cc(C(=O)c3ccc(N4CCN(C(=O)CN5CCN(CC(=O)c6ccc(F)cc6)CC5)CC4)cc3)oc2c1	9.64
CCN(CC)c1ccc2cc(C(=O)c3ccc(N4CCN(C(=O)CN5CCN(C(=O)c6ccc(C(F)(F)F)cc6)CC5)CC4)cc3)oc2c1	> 40

Test system: A549
Assay: Cytotoxicity against human A549 assessed as reduction in cell viability after 48 hrs by MTT assay
Format: functional, cell-based
Conditions: A549, 48 h

SMILES	IC50 [µM]
CCN(CC)c1ccc2cc(C(=O)c3ccc(N4CCN(C(=O)CN5CCN(Cc6ccc(C(F)(F)F)cc6)CC5)CC4)cc3)oc2c1	20.1
CCOC(=O)CN1CCN(CC(=O)N2CCN(c3ccc(C(=O)c4cc5ccc(N(CC)CC)cc5o4)cc3)CC2)CC1	> 40
CCN(CC)c1ccc2cc(C(=O)c3ccc(N4CCN(C(=O)CN5CCN(C(=O)CCl)CC5)CC4)cc3)oc2c1	3.06
CCN(CC)c1ccc2cc(C(=O)c3ccc(N4CCN(C(=O)CN5CCN(C(=O)c6cc(Cl)cc(Cl)c6)CC5)CC4)cc3)oc2c1	6.74
C#CCN1CCN(CC(=O)N2CCN(c3ccc(C(=O)c4cc5ccc(N(CC)CC)cc5o4)cc3)CC2)CC1	> 40
O=c1[nH]cc(F)c(=O)[nH]1 [FLUOROURACIL]	10.6
CCN(CC)c1ccc2cc(C(=O)c3ccc(N4CCN(C(=O)CN5CCN(S(=O)(=O)c6ccc(C#N)cc6)CC5)CC4)cc3)oc2c1	> 40
CCN(CC)c1ccc2cc(C(=O)c3ccc(N4CCN(C(=O)CN5CCN(C(=O)c6ccc(F)cc6)CC5)CC4)cc3)oc2c1	> 40
CCN(CC)c1ccc2cc(C(=O)c3ccc(N4CCN(C(=O)CN5CCN(CC(=O)c6ccccc6)CC5)CC4)cc3)oc2c1	12.6
CCN(CC)c1ccc2cc(C(=O)c3ccc(N4CCN(C(=O)CN5CCN(CC(=O)c6ccc(C)cc6)CC5)CC4)cc3)oc2c1	0.87
CCN(CC)c1ccc2cc(C(=O)c3ccc(N4CCN(C(=O)CN5CCN(CC(=O)c6ccc(C#N)cc6)CC5)CC4)cc3)oc2c1	4.57
CCN(CC)c1ccc2cc(C(=O)c3ccc(N4CCN(C(=O)CN5CCN(CC(=O)c6ccc(F)cc6)CC5)CC4)cc3)oc2c1	0.57
CCN(CC)c1ccc2cc(C(=O)c3ccc(N4CCN(C(=O)CN5CCN(C(=O)c6ccc(C(F)(F)F)cc6)CC5)CC4)cc3)oc2c1	> 40

Test system: MCF7
Assay: Cytotoxicity against human MCF7 assessed as reduction in cell viability after 48 hrs by MTT assay
Format: functional, cell-based
Conditions: MCF7, 48 h

SMILES	IC50 [µM]
CCN(CC)c1ccc2cc(C(=O)c3ccc(N4CCN(C(=O)CN5CCN(Cc6ccc(C(F)(F)F)cc6)CC5)CC4)cc3)oc2c1	18.2
CCOC(=O)CN1CCN(CC(=O)N2CCN(c3ccc(C(=O)c4cc5ccc(N(CC)CC)cc5o4)cc3)CC2)CC1	> 40
CCN(CC)c1ccc2cc(C(=O)c3ccc(N4CCN(C(=O)CN5CCN(C(=O)CCl)CC5)CC4)cc3)oc2c1	> 40
CCN(CC)c1ccc2cc(C(=O)c3ccc(N4CCN(C(=O)CN5CCN(C(=O)c6cc(Cl)cc(Cl)c6)CC5)CC4)cc3)oc2c1	16.1
C#CCN1CCN(CC(=O)N2CCN(c3ccc(C(=O)c4cc5ccc(N(CC)CC)cc5o4)cc3)CC2)CC1	> 40
O=c1[nH]cc(F)c(=O)[nH]1 [FLUOROURACIL]	26.3
CCN(CC)c1ccc2cc(C(=O)c3ccc(N4CCN(C(=O)CN5CCN(S(=O)(=O)c6ccc(C#N)cc6)CC5)CC4)cc3)oc2c1	> 40
CCN(CC)c1ccc2cc(C(=O)c3ccc(N4CCN(C(=O)CN5CCN(C(=O)c6ccc(F)cc6)CC5)CC4)cc3)oc2c1	> 40
CCN(CC)c1ccc2cc(C(=O)c3ccc(N4CCN(C(=O)CN5CCN(CC(=O)c6ccccc6)CC5)CC4)cc3)oc2c1	34.5
CCN(CC)c1ccc2cc(C(=O)c3ccc(N4CCN(C(=O)CN5CCN(CC(=O)c6ccc(C)cc6)CC5)CC4)cc3)oc2c1	> 40
CCN(CC)c1ccc2cc(C(=O)c3ccc(N4CCN(C(=O)CN5CCN(CC(=O)c6ccc(C#N)cc6)CC5)CC4)cc3)oc2c1	11.9
CCN(CC)c1ccc2cc(C(=O)c3ccc(N4CCN(C(=O)CN5CCN(CC(=O)c6ccc(F)cc6)CC5)CC4)cc3)oc2c1	16.7
CCN(CC)c1ccc2cc(C(=O)c3ccc(N4CCN(C(=O)CN5CCN(C(=O)c6ccc(C(F)(F)F)cc6)CC5)CC4)cc3)oc2c1	> 40

Test system: SGC-7901
Assay: Cytotoxicity against human SGC7901 assessed as reduction in cell viability after 48 hrs by MTT assay
Format: functional, cell-based
Conditions: SGC-7901, 48 h

SMILES	IC50 [µM]
CCN(CC)c1ccc2cc(C(=O)c3ccc(N4CCN(C(=O)CN5CCN(Cc6ccc(C(F)(F)F)cc6)CC5)CC4)cc3)oc2c1	32
CCOC(=O)CN1CCN(CC(=O)N2CCN(c3ccc(C(=O)c4cc5ccc(N(CC)CC)cc5o4)cc3)CC2)CC1	> 40
CCN(CC)c1ccc2cc(C(=O)c3ccc(N4CCN(C(=O)CN5CCN(C(=O)CCl)CC5)CC4)cc3)oc2c1	1.63
CCN(CC)c1ccc2cc(C(=O)c3ccc(N4CCN(C(=O)CN5CCN(C(=O)c6cc(Cl)cc(Cl)c6)CC5)CC4)cc3)oc2c1	2.72
C#CCN1CCN(CC(=O)N2CCN(c3ccc(C(=O)c4cc5ccc(N(CC)CC)cc5o4)cc3)CC2)CC1	20.1
O=c1[nH]cc(F)c(=O)[nH]1 [FLUOROURACIL]	12
CCN(CC)c1ccc2cc(C(=O)c3ccc(N4CCN(C(=O)CN5CCN(S(=O)(=O)c6ccc(C#N)cc6)CC5)CC4)cc3)oc2c1	> 40
CCN(CC)c1ccc2cc(C(=O)c3ccc(N4CCN(C(=O)CN5CCN(C(=O)c6ccc(F)cc6)CC5)CC4)cc3)oc2c1	> 40
CCN(CC)c1ccc2cc(C(=O)c3ccc(N4CCN(C(=O)CN5CCN(CC(=O)c6ccccc6)CC5)CC4)cc3)oc2c1	4.03
CCN(CC)c1ccc2cc(C(=O)c3ccc(N4CCN(C(=O)CN5CCN(CC(=O)c6ccc(C)cc6)CC5)CC4)cc3)oc2c1	> 40
CCN(CC)c1ccc2cc(C(=O)c3ccc(N4CCN(C(=O)CN5CCN(CC(=O)c6ccc(C#N)cc6)CC5)CC4)cc3)oc2c1	> 40
CCN(CC)c1ccc2cc(C(=O)c3ccc(N4CCN(C(=O)CN5CCN(CC(=O)c6ccc(F)cc6)CC5)CC4)cc3)oc2c1	3.44
CCN(CC)c1ccc2cc(C(=O)c3ccc(N4CCN(C(=O)CN5CCN(C(=O)c6ccc(C(F)(F)F)cc6)CC5)CC4)cc3)oc2c1	> 40

Test system: HCT-116
Assay: Cytotoxicity against human HCT116 assessed as reduction in cell viability after 48 hrs by MTT assay
Format: functional, cell-based
Conditions: HCT-116, 48 h

SMILES	IC50 [µM]
CCN(CC)c1ccc2cc(C(=O)c3ccc(N4CCN(C(=O)CN5CCN(Cc6ccc(C(F)(F)F)cc6)CC5)CC4)cc3)oc2c1	> 40
CCOC(=O)CN1CCN(CC(=O)N2CCN(c3ccc(C(=O)c4cc5ccc(N(CC)CC)cc5o4)cc3)CC2)CC1	> 40
CCN(CC)c1ccc2cc(C(=O)c3ccc(N4CCN(C(=O)CN5CCN(C(=O)CCl)CC5)CC4)cc3)oc2c1	> 40
CCN(CC)c1ccc2cc(C(=O)c3ccc(N4CCN(C(=O)CN5CCN(C(=O)c6cc(Cl)cc(Cl)c6)CC5)CC4)cc3)oc2c1	28
C#CCN1CCN(CC(=O)N2CCN(c3ccc(C(=O)c4cc5ccc(N(CC)CC)cc5o4)cc3)CC2)CC1	17.7
O=c1[nH]cc(F)c(=O)[nH]1 [FLUOROURACIL]	15.5
CCN(CC)c1ccc2cc(C(=O)c3ccc(N4CCN(C(=O)CN5CCN(S(=O)(=O)c6ccc(C#N)cc6)CC5)CC4)cc3)oc2c1	36.4
CCN(CC)c1ccc2cc(C(=O)c3ccc(N4CCN(C(=O)CN5CCN(C(=O)c6ccc(F)cc6)CC5)CC4)cc3)oc2c1	> 40
CCN(CC)c1ccc2cc(C(=O)c3ccc(N4CCN(C(=O)CN5CCN(CC(=O)c6ccccc6)CC5)CC4)cc3)oc2c1	27.1
CCN(CC)c1ccc2cc(C(=O)c3ccc(N4CCN(C(=O)CN5CCN(CC(=O)c6ccc(C)cc6)CC5)CC4)cc3)oc2c1	13.4
CCN(CC)c1ccc2cc(C(=O)c3ccc(N4CCN(C(=O)CN5CCN(CC(=O)c6ccc(C#N)cc6)CC5)CC4)cc3)oc2c1	> 40
CCN(CC)c1ccc2cc(C(=O)c3ccc(N4CCN(C(=O)CN5CCN(CC(=O)c6ccc(F)cc6)CC5)CC4)cc3)oc2c1	14.2
CCN(CC)c1ccc2cc(C(=O)c3ccc(N4CCN(C(=O)CN5CCN(C(=O)c6ccc(C(F)(F)F)cc6)CC5)CC4)cc3)oc2c1	> 40

Test system: L02
Assay: Cytotoxicity against human L02 assessed as reduction in cell viability after 48 hrs by MTT assay
Format: cell-based
Conditions: L02, 48 h

SMILES	IC50 [µM]
CCN(CC)c1ccc2cc(C(=O)c3ccc(N4CCN(C(=O)CN5CCN(Cc6ccc(C(F)(F)F)cc6)CC5)CC4)cc3)oc2c1	6.54
CCOC(=O)CN1CCN(CC(=O)N2CCN(c3ccc(C(=O)c4cc5ccc(N(CC)CC)cc5o4)cc3)CC2)CC1	68.7
CCN(CC)c1ccc2cc(C(=O)c3ccc(N4CCN(C(=O)CN5CCN(C(=O)CCl)CC5)CC4)cc3)oc2c1	20.9
CCN(CC)c1ccc2cc(C(=O)c3ccc(N4CCN(C(=O)CN5CCN(C(=O)c6cc(Cl)cc(Cl)c6)CC5)CC4)cc3)oc2c1	> 100
C#CCN1CCN(CC(=O)N2CCN(c3ccc(C(=O)c4cc5ccc(N(CC)CC)cc5o4)cc3)CC2)CC1	> 100
CCN(CC)c1ccc2cc(C(=O)c3ccc(N4CCN(C(=O)CN5CCN(S(=O)(=O)c6ccc(C#N)cc6)CC5)CC4)cc3)oc2c1	44.1
CCN(CC)c1ccc2cc(C(=O)c3ccc(N4CCN(C(=O)CN5CCN(C(=O)c6ccc(F)cc6)CC5)CC4)cc3)oc2c1	> 100
CCN(CC)c1ccc2cc(C(=O)c3ccc(N4CCN(C(=O)CN5CCN(CC(=O)c6ccccc6)CC5)CC4)cc3)oc2c1	53.8
CCN(CC)c1ccc2cc(C(=O)c3ccc(N4CCN(C(=O)CN5CCN(CC(=O)c6ccc(C)cc6)CC5)CC4)cc3)oc2c1	36.5
CCN(CC)c1ccc2cc(C(=O)c3ccc(N4CCN(C(=O)CN5CCN(CC(=O)c6ccc(C#N)cc6)CC5)CC4)cc3)oc2c1	> 100
CCN(CC)c1ccc2cc(C(=O)c3ccc(N4CCN(C(=O)CN5CCN(CC(=O)c6ccc(F)cc6)CC5)CC4)cc3)oc2c1	68.4
CCN(CC)c1ccc2cc(C(=O)c3ccc(N4CCN(C(=O)CN5CCN(C(=O)c6ccc(C(F)(F)F)cc6)CC5)CC4)cc3)oc2c1	14.3
